Test [1] deals with C. metallidurans CH34. Put plainly: Minimal Inhibitory Concentration (MIC) of Na3As04, wild type C. metallidurans CH34. It counts as cell-based, Cupriavidus metallidurans. Particulars: Na3As04 0-1,000 mM, 28° C., 48 h, OD600. As for the experimental part:
After incubation at 28° C. for 48 h, the bacterial growth was measured by reading the absorbance at 600 nm (OD600) in a spectrophotometer.
The MIC of C. metallidurans CH34 and C. metallidurans CH34/pCM-As cells against As5+ ions were also studied. […] The MIC of Na3As04 for C. metallidurans CH34/pCM-As was above 1,000 mM, indicating an increase in survivability to As5+ ions above 100% (FIG. 11B). The bacterial growth for the MIC assays was quantified by Absorbance reading at 600 nm (FIG. 11C). The assays were performed in triplicate, showing similar results.

For test [2], the system named is E. coli UT5600. Put plainly: Minimal Inhibitory Concentration (MIC) of Na3As04, wild type E. coli UT5600. It counts as cell-based, Escherichia coli. Particulars: Na3As04 0-50 mM, 28° C., 48 h, OD600. The protocol:
(§1) Panel C illustrates the comparison between the growth levels of E. coli wild type and recombinant cells in the presence of different concentrations of Na3As04 ranging from 0-50 mM. After incubation at 28° C. for 48 h, the bacterial growth was measured by reading the absorbance at 600 nm (OD600) in a spectrophotometer.
(§2) To find out whether the recombinant E. coli UT5600/pCM-As lineage had increased resistance to arsenate ions, as compared to the UT5600 lineage from which it is derived, the MIC against Na3As04 of each of the lineages was determined.
(§3) The final bacterial growth in different Na3As04 concentrations was quantified by Absorbance reading at 600 ηm (FIG. 10C). The assays were performed in triplicate, showing similar results.

Test [3] deals with E. coli UT5600/pCM-As. Put plainly: Minimal Inhibitory Concentration (MIC) of Na3As04, recombinant E. coli UT5600/pCM-As. It counts as cell-based, Escherichia coli. Particulars: Na3As04 0-50 mM, 28° C., 48 h, OD600. The protocol: as §1, §2, §3

Consider sodium arsenate [Na3As04], for which the “Minimum Inhibitory Concentration (MIC)” value in test [1] is 500 mM; in test [2], 25 mM; in test [3] it was 50 mM.

Values taken from patent publication US20140093942A1, “GENE, ARS-R ANCHORAGE CASSETTE, ARS-R EXPRESSION-ANCHORAGE CASSETTE, RECOMBINANT PLASMID, BACTERIAL TRANSGENIC LINEAGE, USE OF SAID GENE, USE OF SAID LINEAGE IN ENVIRONMENTAL BIOREMEDIATION PROCESSES” (UNIVERSIDADE DE SÃO PAULO - USP, priority 2012, published 2014).
